What all share (assay type): cell-based, human
In data set [1] the test system is Caco-2 cells. The data set can be described thus: LDH release ELISA in treated Caco-2 cells. The note with it: compound-treated Caco-2 cells, p < 0.001. The protocol:
The amount of lactate dehydrogenase enzyme (LDH) secreted by compound 3e-treated Caco-2 cells was measured using the double-antibody-sandwich ELISA method (Sun-Red, Cat. N. 201-28-0094) to confirm the cytotoxic impact of the tested chemical on Caco-2 cells. Specifically, 40 µL of the supernatant obtained from centrifuging the Caco-2 cells that had been treated with the 3e compound was added to the test wells. Next, LDH-antibody (10 µL) and Streptavidin-HRP (50 µL) were transferred to every well. After 60 min of incubation at 37 °C, the 96-well plate was shaken gently. […] The 96-well plate was then gently shaken and left to incubate for 60 min at 37 °C. The plates were then washed, and each test well received 50 µL of chromogen solution A and 50 µL of chromogen solution B. The plates were then incubated at 37 °C, and darkened for 10 min. Stop solution (50 µL) was then applied to each well. Once testing was complete, 450 nm was used to determine the plate’s optical density (OD). The amount of released LDH was calculated using the standard curve that had been previously established.
For orientation: LDH leaks from cells whose membrane has failed.

Data set [2] has as its system Caco-2 cells. Description: Comet assay (DNA fragmentation). The text has this:
The production of genotoxicity in Caco-2 cells treated with compound 3e was investigated using a comet test. Caco-2 cells were pretreated with a caspase-3 inhibitor (Z-DEVD-FMK) to ascertain whether or not caspase-3 activity contributed to the DNA damage induced by compound 3e. Using the comet test, in order to assess the influence of compound 3e upon DNA damage, Caco-2 cells were subjected to either compound 3e separately (IC50 concentration) or compound 3e (IC50 concentration) following prior treatment with Z-DEVD-FMK ([…]) for 1 h. Broken strands of broken DNA will detach from intact strands of cellular DNA during fragmentation, producing a structure similar to a comet tail visible under a fluorescence microscope (Carl Zeiss, Axiostar Plus 1169–149, Jena, Germany). For each slide, 100 photos of comets of varying shapes were captured using a computerized image analysis system. Afterwards, the photos were analyzed using the TriTek Comet ScoreTM program (TriTek Corp., Sumerduck, VA, USA) to gather information about the comet’s properties. The tail DNA and tail moment, two often-utilized markers, were built to be used in discovering the data. The Olive tail moment (OTM), which is also called a tail moment parameter, is generally accepted as the gold standard for evaluating DNA damage. Its value, which was calculated using Equation (3), is proportional to the tail’s DNA mobility and DNA abundance. OTM = quantity of tail moment × quantity of tail DNA divided by 100(3)

Another data set relates to Caspase-3. The data set can be described thus: qRT-PCR of Caspase-3 mRNA in Caco-2 cells. Conditions: Caco-2, IC50 concentration. The text has this: The relative amounts of messenger RNA (mRNA) for apoptosis-related genes (BCL-2, Caspase-3, and BAX) have been monitored in order to look into potential processes relating to the effect of the tested 3e compound on apoptosis inside the treated Caco-2 cancer cells. In a nutshell, Thermo Fisher Scientific’s RNA purification kit (Waltham, MA, USA) (catalog #K0731) was used to isolate total RNA from both control- and Caco-2-treated cells, as per the manufacturer’s instructions. The ratio of A260/A280 was then quantified using a spectrophotometer to figure out the amounts of extracted RNA in each sample. Then, following the manufacturer’s instructions, first-strand cDNA was produced from the collected RNA samples using a kit made by Thermo Fisher Scientific called RevertAid (catalog #K1621). Real-time PCR amplification was performed on an Applied Biosystems StepOnePlusTM instrument using the Thermo Fisher Scientific Maxima SYBR Green qPCR kit (catalog #K0221) and gene-specific primers (Invitrogen, Waltham, MA, USA), as detailed in Table 3. Then, the relative quantification (RQ) of the utilized genes was calculated using a comparative threshold cycle approach, compared against their varied expression in the untreated samples, and normalized to B-actin as a housekeeping gene. […]
(In general: In qPCR the cycle at which signal appears reflects the starting amount.)

Another data set concerns BAX. The data set can be described thus: ELISA of BAX protein in Caco-2 cells. Conditions: Caco-2, IC50 dose. The protocol:
(§1) Protein expression levels of the under investigation genes were evaluated in Caco-2 cells treated with compound 3e using an ELISA assay. Three different ELISA kits were used: one for BAX (ab199080), one for cleaved Caspase-3 (ab220655), and one for BCL-2 (ab272102), which were supplied via Abcam (Cambridge, UK). All of these kits are based on a single, highly sensitive sandwich enzyme assay that lasts 90 min and uses a precoated ELISA plate and an anti-tag antibody to capture antibodies that have been labeled with an affinity tag. The tested compound 3e-treated cultured Caco-2 cells were centrifuged, the resulting pellets were discarded, and the residual supernatant was mixed with an antibody cocktail solution in a 96-well ELISA plate. The plate was then incubated for 1 h at room temperature. After thoroughly rinsing the plate in wash buffer (1×), in each well, a ten min incubation period of tetramethylbenzidine substrate solution was conducted. Following that, the plate was stored in a dim area. The intensity at 450 nm was then measured with a microplate reader immediately after a stop solution was added.
(In general: ELISA stands for enzyme-linked immunosorbent assay.)

A further data set has as its system BCL-2. Description: ELISA of BCL-2 protein in Caco-2 cells. Conditions: Caco-2, IC50 dose. The protocol: as §1
Setting [3] is: Caco-2, IC50 concentration after pretreatment with Caspase-3 inhibitor Z-DEVD-FMK for 1 h.
The mark [4] stands for this setting: Caco-2, compound alone at IC50 concentration, without Caspase-3 inhibitor.

Here are results for one molecule from article PMC10886690, “Synthesis, Characterization, Antioxidant, and Anticancer Activity against Colon Cancer Cells of Some Cinnamaldehyde-Based Chalcone Derivatives” (Biomolecules, 2024).

As to `O=C(/C=C/C=C/c1ccccc1)c1ccc[nH]1` [3e, (2E,4E)-5-phenyl-1-(1H-pyrrol-2-yl)penta-2,4-dien-1-one], in the data set with Caco-2 cells [1], the “LDH levels versus untreated Caco-2 cells” value is on record as “considerably increased”. In addition, in the data set with Caco-2 cells [2] (setting [3]), the “% DNA in Tail” value came out at 4.55± 1.73, the “Olive Tail Moment (OTM)” value was determined as 0.69± 0.16 and the “Tail Moment” value is reported as 0.44± 0.08. Also, in the data set on Caco-2 cells [2] (setting [4]), the “% DNA in Tail” value came out at 8.18 ± 0.56, the “Olive Tail Moment (OTM)” value was determined as 1.92 ± 0.04 and the “Tail Moment” value came to 1.19 ± 0.03. Besides, the “Caspase-3 mRNA expression level versus untreated cells” value with Caspase-3 is recorded as “increased considerably”. Moreover, the “BAX protein level versus untreated cells” value with BAX is recorded as “increased levels”. In addition, the “BCL-2 protein level versus untreated cells” value in the data set with BCL-2 is recorded as “decreased”.
